Test results published in patent US10000484B2, “Inhibitors of the renal outer medullary potassim channel” (MERCK SHARP & DOHME CORP., priority 2013, dated 2018).

Target: T1, hROMK (hKir1.1) (Homo sapiens, UniProt P48048)
T1 construct: expressed in transfected cells
T1 sequence (P48048 1-391): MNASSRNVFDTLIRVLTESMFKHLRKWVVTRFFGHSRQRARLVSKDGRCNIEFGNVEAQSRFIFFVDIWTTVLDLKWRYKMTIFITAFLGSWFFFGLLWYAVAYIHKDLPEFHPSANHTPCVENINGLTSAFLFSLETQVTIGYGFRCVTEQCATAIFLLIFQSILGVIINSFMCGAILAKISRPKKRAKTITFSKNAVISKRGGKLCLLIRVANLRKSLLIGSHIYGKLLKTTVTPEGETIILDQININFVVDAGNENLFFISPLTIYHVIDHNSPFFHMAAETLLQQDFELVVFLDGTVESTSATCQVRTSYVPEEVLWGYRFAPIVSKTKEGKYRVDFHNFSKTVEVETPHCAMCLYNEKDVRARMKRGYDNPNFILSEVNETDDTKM
Assay: Thallium Flux Assay (ROMK channel functional thallium flux assay, FLIPR-Tetra)
Type: cell-based
Settings: HEK293 cells stably expressing hROMK; 30 min incubation with compound
Description: The following Thallium Flux Assay was performed on each of the final product compounds in the Examples. When the final product of an Example was an HCl salt, the salt was run in the Assay.
HEK293 cells stably expressing hROMK (hKir1.1) were grown at 37° C. in a 10% CO2 humidified incubator in complete growth media: Dulbecco's Modified Eagle Medium supplemented with non-essential amino acids, Penicillin/Streptomycin/Glutamine, G418 and FBS. At >80% confluency, aspirate the media from the flask and rinse with 10 mL Calcium/Magnesium-free PBS. Add 5 mL of 1× trypsin (prepared in Ca/Mg Free PBS) to T-225 flask and return flask to 37° C./CO2 incubator for 2-3 minutes. To dislodge the cell, gently bang the side of the flask with your hand. Triturate the cells completely and then transfer the cells to 25 mL complete media. Centrifuge at 1,500 rpm for 6 min followed by resuspension in complete growth media and determine cell concentration. For typical re-seeding, 4E6 cells/T-225 flask will attain >80% confluency in 4 days. Under ideal growth conditions and appropriate tissue culture practices, this cell line is stable for 40-45 passages.
FluxOR Kit Components (Invitrogen F10017)
• FluxOR™ Reagent (Component A) • FluxOR™ Assay Buffer (Component B)—10× Concentrate • PowerLoad™ Concentrate (Component C)—100× Concentrate • Probenecid (Component D)—Lyophilized sample is kept at −20° C. Water soluble, 100× after solubilization in 1 mL water. Store at 4° C. • FluxOR™ Chloride-free Buffer (Component E)—5× Concentrate • Potassium sulfate (K2SO4) Concentrate (Component F)—125 mM in water. Store at 4° C. • Thallium sulfate (Tl2SO4) Concentrate (Component G)—50 mM in water. Store at 4° C. • DMSO (dimethyl sulfoxide, Component H)—1 mL (100%) Reagent Preparation: FluxOR Working Solutions • 1000× FluxOR™ Reagent: Reconstitute a vial of component A in 100 μl DMSO; Mix well; Store 10 μl aliquots at −20° C. • 1× FluxOR™ Assay Buffer: Dilute Component B 10-fold with water; Adjust pH to 7.4 with Hepes/NaOH; Filter and store at 4° C. • Probenecid/Assay Buffer: 100 mL of 1× FluxOR™ Assay Buffer; 1 mL of reconstituted component D; Store at 4° C. • Loading Buffer (per microplate): 10 μl 1000× FluxOR™ Reagent; 100 μl component C; 10 mL Probenecid/Assay Buffer • Compound Buffer (per microplate): 20 mL Probenecid/Assay Buffer; 0.3 mM ouabain (10 mM ouabain in water can be stored in amber bottle/aluminum foil at room temperature); Test compound • 1× FluxOR™ Chloride-Free Buffer: Prepare 1× working solution in water. Can be stored at room temperature • Stimulant Buffer (prepared at 5× final concentration in 1× FluxOR™ Chloride-Free Buffer): 7.5 mM Thallium sulfate and 0.75 mM Potassium sulfate (to give a final assay concentration of 3 mM Thallium/0.3 mM Potassium). Store at 4° C. when not in use. Assay Protocol—
The ROMK channel functional thallium flux assay is performed in 384 wells, using the FLIPR-Tetra instrument. HEK-hKir1.1 cells are seeded in Poly-D-Lysine microplates and kept in a 37° C.-10% CO2 incubator overnight. On the day of the experiment, the growth media is replaced with the FluxOR™ reagent loading buffer and incubated, protected from light, at ambient temperature (23-25° C.) for 90 min. The loading buffer is replaced with assay buffer±test compound followed by 30 min incubation at ambient temperature, where the Thallium/Potassium stimulant is added to the microplate.
1. Seed HEK-hKir1.1 cells (50 μl at 20,000 cells/well) in 384-well PDL coated Microplates
2. Allow cells to adhere overnight in humidified 37° C./10% CO2 incubator
3. Completely remove cell growth media from microplate and replace with 25 μl loading buffer
4. Incubate Microplate at room temperature, protected form light, for 90 min
5. Remove loading buffer and replace with 25 μl 1× Assay Buffer±test compound.
6. Incubate microplate at room temperature, protected from light, for 30 min
7. At FLIPR-Tetra 384: Add stimulant (Thallium/Potassium) solution to microplate and monitor fluorescence. […]

IC50	SMILES
155 nM	Cc1c(C(O)CN2CCc3nc(-c4ccc(C#N)cn4)ncc3C2)ccc2c1COC2=O (centres unmarked) [Example 40, 6-{6-[2-hydroxy-2-(4-methyl-1-oxo-1,3-dihydro-2-benzofuran-5-yl)ethyl]-5,6,7,8-tetrahydropyrido[4,3-d]pyrimidin-2-yl}pyridine-3-carbonitrile]
291 nM	Cc1c(C(O)CN2CCn3c(nn(-c4ccc5c(c4)COC5=O)c3=O)C2)ccc2c1COC2=O (centres unmarked) [Example 37, 7-[2-hydroxy-2-(4-methyl-1-oxo-1,3-dihydro-2-benzofuran-5-yl)ethyl]-2-(1-oxo-1,3-dihydro-2-benzofuran-5-yl)-5,6,7,8-tetrahydro[1,2,4]triazolo[4,3-a]pyrazin-3(2H)-one]
70.2 nM	Cc1c(CCN2CCc3nc(-c4ccc(C#N)c(F)c4)ncc3C2)ccc2c1COC2=O [Example 27]
82 nM	Cc1c(C(O)CN2CCc3nc(-c4ccc(C#N)c(F)c4)ncc3C2)ccc2c1COC2=O (centres unmarked) [Example 38, 2-fluoro-4-{6-[2-hydroxy-2-(4-methyl-1-oxo-1,3-dihydro-2-benzofuran-5-yl)ethyl]-5,6,7,8-tetrahydropyrido[4,3-d]pyrimidin-2-yl}benzonitrile]
74.7 nM	Cc1c(CCN2CCc3nc(-c4ccc5c(c4)COC5=O)oc3C2)ccc2c1COC2=O [Example 18, 4-methyl-5-{2-[2-(1-oxo-1,3-dihydro-2-benzofuran-5-yl)-6,7-dihydro[1,3]oxazolo[5,4-c]pyridin-5(4H)-yl]ethyl}-2-benzofuran-1(3H)-one]
89 nM	Cc1c(CCN2CCn3nc(-c4ccc5c(c4)COC5=O)nc3C2)ccc2c1COC2=O [Example 16, 4-methyl-5-{2-[2-(1-oxo-1,3-dihydro-2-benzofuran-5-yl)-5,6-dihydro[1,2,4]triazolo[1,5-a]pyrazin-7(8H)-yl]ethyl}-2-benzofuran-1(3H)-one]
337 nM	Cc1cc(C#N)ccc1-c1ncc2c(n1)CCN(CC(O)c1ccc3c(c1C)COC3=O)C2 (centres unmarked) [Example 39, 4-{6-[2-hydroxy-2-(4-methyl-1-oxo-1,3-dihydro-2-benzofuran-5-yl)ethyl]-5,6,7,8-tetrahydropyrido[4,3-d]pyrimidin-2-yl}-3-methylbenzonitrile]

The next lines start with the molecule.

SMILES	IC50
Cc1c(CCN2CCc3nc(-c4ccc(C#N)cc4F)ncc3C2)ccc2c1COC2=O [Example 26]	314 nM
Cc1c(CCN2CCn3c(-c4ccc5c(c4)COC5=O)cnc3C2)ccc2c1COC2=O [Example 12, 4-methyl-5-{2-[3-(1-oxo-1,3-dihydro-2-benzofuran-5-yl)-5,6-dihydroimidazo[1,2-a]pyrazin-7(8H)-yl]ethyl}-2-benzofuran-1(3H)-one]	124 nM
Cc1c(CCN2CCc3nc(-c4ccc(F)c(C#N)c4)ncc3C2)ccc2c1COC2=O [Example 22]	441 nM
Cc1c(CCN2CC[C@H]3[C@@H](C2)OC(=O)N3Cc2ccc3c(c2C)COC3=O)ccc2c1COC2=O [Example 28]	113 nM
COc1ccc(-c2ncc3c(n2)CCN(CCc2ccc4c(c2C)COC4=O)C3)cc1C#N [Example 23]	208 nM
COc1cc(-c2nnc3n2CCN(CCc2ccc4c(c2C)COC4=O)C3)ccc1C#N [Example 14, 2-methoxy-4-{7-[2-(4-methyl-1-oxo-1,3-dihydro-2-benzofuran-5-yl)ethyl]-5,6,7,8-tetrahydro[1,2,4]triazolo[4,3-a]pyrazin-3-yl}benzonitrile]	85 nM
Cc1c(CCN2CCc3nc(-c4ccc(C#N)cn4)ncc3C2)ccc2c1COC2=O [Example 21]	449 nM
Cc1c(C(O)CN2CCn3c(nn(-c4ccc(C#N)c(F)c4)c3=O)C2)ccc2c1COC2=O (centres unmarked) [Example 36, 2-fluoro-4-{7-[2-hydroxy-2-(4-methyl-1-oxo-1,3-dihydro-2-benzofuran-5-yl)ethyl]-3-oxo-5,6,7,8-tetrahydro[1,2,4]triazolo[4,3-a]pyrazin-2(3H)-yl}benzonitrile]	163 nM
Cc1c(CCN2CCn3cc(-c4ccc5c(c4)CCOC5=O)nc3C2)ccc2c1COC2=O [Example 17, 6-{7-[2-(4-methyl-1-oxo-1,3-dihydro-2-benzofuran-5-yl)ethyl]-5,6,7,8-tetrahydroimidazo[1,2-a]pyrazin-2-yl}-3,4-dihydro-1H-isochromen-1-one]	654 nM
Cc1c([C@@H](O)CN2CCc3c(cnn3-c3ccc(C#N)cn3)C2)ccc2c1COC2=O [Example 43, 6-{5-[(2R)-2-hydroxy-2-(4-methyl-1-oxo-1,3-dihydro-2-benzofuran-5-yl)ethyl]-4,5,6,7-tetrahydro-1H-pyrazolo[4,3-c]pyridin-1-yl}pyridine-3-carbonitrile]	592 nM
C[C@H]1Cc2cc(CCN3CCn4cc(-c5ccc6c(c5)COC6=O)nc4C3)ccc2C(=O)O1 [Example 19, (3S)-3-methyl-6-{2-[2-(1-oxo-1,3-dihydro-2-benzofuran-5-yl)-5,6-dihydroimidazo[1,2-a]pyrazin-7(8H)-yl]ethyl}-3,4-dihydro-1H-isochromen-1-one]	198 nM
Cc1cc(C#N)ccc1-c1ncc2c(n1)CCN(CCc1ccc3c(c1C)COC3=O)C2 [Example 1, 3-methyl-4-(6-(2-(4-methyl-1-oxo-1,3-dihydroisobenzofuran-5-yl)ethyl)-5,6,7,8-tetrahydropyrido[4,3-d]pyrimidin-2-yl)benzonitrile]	477 nM

Target: T2, ROMK (Kir1.1) (Homo sapiens, UniProt P48048)
T2 sequence (P48048 1-391): T1 sequence (P48048 1-391)
Assay: 86Rb+ Efflux Assay, described in WO2013/062892 at pages 79-80
Type: cell-based
Settings: values marked "(Rb)" in Table 10
From the text: The data for Examples 2, 3, 4, 8, 9, 10, 15 and 32 were obtained using the ^86Rb^+ Efflux Assay, described in WO2013/062892 at pages 79-80.

IC50	SMILES
66 nM	Cc1c(CCN2CCc3c(cnn3-c3ccc4c(c3)COC4=O)C2)ccc2c1COC2=O [Example 10, 4-methyl-5-{2-[1-(1-oxo-1,3-dihydro-2-benzofuran-5-yl)-1,4,6,7-tetrahydro-5H-pyrazolo[4,3-c]pyridin-5-yl]ethyl}-2-benzofuran-1(3H)-one]
69.9 nM	Cc1c(C(O)CN2CCc3nc(-c4ccc5c(c4)COC5=O)ncc3C2)ccc2c1COC2=O (centres unmarked) [Example 32, 5-{1-hydroxy-2-[2-(1-oxo-1,3-dihydro-2-benzofuran-5-yl)-7,8-dihydropyrido[4,3-d]pyrimidin-6(5H)-yl]ethyl}-4-methyl-2-benzofuran-1(3H)-one]
96.1 nM	Cc1c(CCN2CCc3nc(-c4ccc5c(c4)COC5=O)ncc3C2)ccc2c1COC2=O [Example 9, 4-methyl-5-{2-[2-(1-oxo-1,3-dihydro-2-benzofuran-5-yl)-7,8-dihydropyrido[4,3-d]pyrimidin-6(5H)-yl]ethyl}-2-benzofuran-1(3H)-one]
304 nM	Cc1c(CCN2CCc3nc(-c4ccc(C#N)cc4)ncc3C2)ccc2c1COC2=O [Example 4, 4-{6-[2-(4-methyl-1-oxo-1,3-dihydro-2-benzofuran-5-yl)ethyl]-5,6,7,8-tetrahydropyrido[4,3-d]pyrimidin-2-yl}benzonitrile]
